From patent US10946074B2, “GLP-1 derivatives and uses thereof” (Novo Nordisk A/S, priority 2016, dated 2021)
Starred links: 1 amine or outer side, 2 acyl side, 3 side chain; linkers in the order of their positions; H or OH if unused. Residues, ends and D or L forms follow the SMILES beside them. Groups on a side chain read outwards from the residue. *: point of attachment. Undecanoyl(11-OPh(4-COOH)) = O=C(O)c1ccc(OCCCCCCCCCCC(=O)*)cc1; Decanoyl(10-O(3-COOH-Ph)) = O=C(O)c1cccc(OCCCCCCCCCC(=O)*)c1; γGlu = O=C(O)[C@H](CCC(=O)[*:2])N[*:1]; AEEA = NCCOCCOCC(=O)O

Biological target: T1, human GLP-1 receptor (Homo sapiens, UniProt P43220)
T1 construct: expressed in transfected cells; host or cells: membranes of BHK cells (parent BHKTS13), clone FCW467-12A
Assay: GLP-1 receptor binding, competitive binding assay with 125I-GLP-1 on isolated membranes (SPA)

[1] = GLP-1 receptor binding Low HSA IC50 (nM), low HSA (max. 0.001% (w/v) final assay concentration)
[2] = GLP-1 receptor binding High HSA IC50 (nM), high HSA (2.0% (w/v) final assay concentration)

T1 sequence (P43220 24-463): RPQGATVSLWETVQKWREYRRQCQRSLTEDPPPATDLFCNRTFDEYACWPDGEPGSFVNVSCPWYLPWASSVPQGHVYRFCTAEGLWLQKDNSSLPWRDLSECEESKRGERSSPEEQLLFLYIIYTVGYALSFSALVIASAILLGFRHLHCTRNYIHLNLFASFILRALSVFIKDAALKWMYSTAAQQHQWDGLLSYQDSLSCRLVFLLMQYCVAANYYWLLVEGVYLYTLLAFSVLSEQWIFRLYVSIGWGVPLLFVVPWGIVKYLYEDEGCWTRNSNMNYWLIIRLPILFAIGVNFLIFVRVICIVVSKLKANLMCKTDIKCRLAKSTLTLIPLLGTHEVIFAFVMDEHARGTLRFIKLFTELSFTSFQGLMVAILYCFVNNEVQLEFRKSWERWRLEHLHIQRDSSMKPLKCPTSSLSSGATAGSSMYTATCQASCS
Protocol: The receptor binding is reported as the concentration at which half of the labelled ligand is displaced from the receptor, the IC50 value.
Buffer 1 consisted of 20 mM Na-HEPES plus 10 mM EDTA and pH was adjusted to 7.4. Buffer 2 consisted of 20 mM Na-HEPES plus 0.1 mM EDTA and pH was adjusted to 7.4. Assay buffer consisted of 50 mM HEPES supplemented with 5 mM EGTA, 5 mM MgCl2, 0.005% w/v Tween 20 and pH was adjusted to 7.4. An 8% albumin stock consisted of HSA dissolved at 8% (w/v) in assay buffer. An 0.02% albumin stock consisted of HSA dissolved at 0.02% (w/v) in assay buffer.
To make a membrane preparation the cells were grown to approximately 80% confluence. The cells were washed twice in phosphate-buffered saline and harvested. The cells were pelleted using a brief centrifugation and the cell pellet was kept on ice. The cell pellet was homogenised with ULTRA-THURRAX™ dispersing instrument for 20-30 seconds in a suitable amount of buffer 1 (e.g., 10 ml). The homogenate was centrifuged for 15 minutes. The pellet was re-suspended (homogenised) in 10 ml buffer 2 and centrifuged. This step was repeated once more. The resulting pellet was re-suspended in buffer 2 and the protein concentration was determined. The membranes were aliquoted and stored at minus 80° C.
For the receptor binding assay in the presence of low HSA (0.005% (w/v)) 50 μl of the assay buffer was added to each well of an assay plate. Assay continued with step 3.
For the receptor binding assay in the presence of high HSA (2% (w/v)) 50 μl of the 8% (w/v) albumin stock was added to each well of an assay plate. Assay continued with step 3.
Cell membrane aliquots were thawed and diluted to their working concentration. Fifty μl were added to each well in the assay plate.
WGA SPA beads were suspended in assay buffer at 20 mg/ml. The suspension was diluted to 10 mg/ml in assay buffer just prior to addition to the assay plate. Fifty μl were added to each well in the assay plate.
A 25 μl aliquot was reserved for measuring total counts/well.
The assay plate was incubated for 2 h at 30° C.
The assay plate was centrifuged for 10 min.
The assay plate was read in a Packard TopCount NXT instrument.
Individual replicates were analysed using non-linear regression in GraphPad Prism. IC50 values were calculated by the software and reported in nM. A minimum of two replicates was measured for each sample. The reported values are averages of all of the measured values for each compound.

Row | Structure (SMILES) | IC50 [1] [nM] | IC50 [2] [nM]
1 | CC[C@H](C)[C@H](NC(=O)[C@H](Cc1ccccc1)NC(=O)[C@H](CCC(=O)O)NC(=O)[C@H](CCCNC(=N)N)NC(=O)[C@H](C)NC(=O)[C@H](C)NC(=O)[C@H](CCC(N)=O)NC(=O)[C@H](CCC(=O)O)NC(=O)[C@H](CCC(=O)O)NC(=O)[C@H](CC(C)C)NC(=O)[C@H](Cc1ccc(O)cc1)NC(=O)[C@H](CO)NC(=O)[C@H](CO)NC(=O)[C@@H](NC(=O)[C@H](CC(=O)O)NC(=O)[C@H](CO)NC(=O)[C@@H](NC(=O)[C@H](Cc1ccccc1)NC(=O)[C@@H](NC(=O)CNC(=O)[C@H](CCC(=O)O)NC(=O)[C@H](Cc1c[nH]c2ccccc12)NC(=O)[C@@H](N)Cc1c[nH]cn1)[C@@H](C)O)[C@@H](C)O)C(C)C)C(=O)N[C@@H](C)C(=O)N[C@@H](Cc1c[nH]c2ccccc12)C(=O)N[C@@H](CC(C)C)C(=O)N[C@H](C(=O)N[C@@H](CCCNC(=N)N)C(=O)NCC(=O)N[C@@H](CCCNC(=N)N)C(=O)N[C@@H](CCCCNC(=O)COCCOCCNC(=O)COCCOCCNC(=O)[C@H](CCCCNC(=O)COCCOCCNC(=O)COCCOCCNC(=O)COCCOCCNC(=O)COCCOCCNC(=O)CC[C@H](NC(=O)[C@H]1CC[C@H](CNC(=O)CCCCCCCCCCCCCCCCCCC(=O)O)CC1)C(=O)O)NC(=O)COCCOCCNC(=O)COCCOCCNC(=O)COCCOCCNC(=O)COCCOCCNC(=O)CC[C@H](NC(=O)[C@H]1CC[C@H](CNC(=O)CCCCCCCCCCCCCCCCCCC(=O)O)CC1)C(=O)O)C(=O)O)C(C)C [Example 12] | 3.16 | 
2 | CC[C@H](C)[C@H](NC(=O)[C@H](Cc1ccccc1)NC(=O)[C@H](CCC(=O)O)NC(=O)[C@H](CCCNC(=N)N)NC(=O)[C@H](C)NC(=O)[C@H](C)NC(=O)[C@H](CCC(N)=O)NC(=O)[C@H](CCC(=O)O)NC(=O)[C@H](CCC(=O)O)NC(=O)[C@H](CC(C)C)NC(=O)[C@H](Cc1ccc(O)cc1)NC(=O)[C@H](CO)NC(=O)[C@H](CO)NC(=O)[C@@H](NC(=O)[C@H](CC(=O)O)NC(=O)[C@H](CO)NC(=O)[C@@H](NC(=O)[C@H](Cc1ccccc1)NC(=O)[C@@H](NC(=O)CNC(=O)[C@H](CCC(=O)O)NC(=O)[C@H](Cc1c[nH]c2ccccc12)NC(=O)[C@@H](N)Cc1c[nH]cn1)[C@@H](C)O)[C@@H](C)O)C(C)C)C(=O)N[C@@H](C)C(=O)N[C@@H](Cc1c[nH]c2ccccc12)C(=O)N[C@@H](CC(C)C)C(=O)N[C@H](C(=O)N[C@@H](CCCNC(=N)N)C(=O)NCC(=O)N[C@@H](CCCCNC(=O)COCCOCCNC(=O)COCCOCCNC(=O)CC[C@H](NC(=O)CCCCCCCCCCOc1ccc(C(=O)O)cc1)C(=O)O)C(=O)N[C@@H](CCCCNC(=O)COCCOCCNC(=O)COCCOCCNC(=O)CC[C@H](NC(=O)CCCCCCCCCCOc1ccc(C(=O)O)cc1)C(=O)O)C(=O)O)C(C)C [Example 8, N{Epsilon-36}-[2-[2-[2-[[2-[2-[2-[[(4S)-4-carboxy-4-[11-(4-carboxyphenoxy)undecanoylamino]butanoyl]amino]ethoxy]ethoxy]acetyl]amino]ethoxy]ethoxy]acetyl],N{Epsilon-37}-[2-[2-[2-[[2-[2-[2-[[(4S)-4-carboxy-4-[11-(4-carboxyphenoxy)undecanoylamino]butanoyl]amino]ethoxy]ethoxy]acetyl]amino]ethoxy]ethoxy]acetyl]-[Trp8,Glu22,Arg26,Arg34,Lys36,Lys37]-GLP-1-(7-37)-peptide] (H-HWEGTFTSDVSSYLEEQAAREFIAWLVRGK([AEEA-AEEA-γGlu-Undecanoyl(11-OPh(4-COOH))])K([AEEA-AEEA-γGlu-Undecanoyl(11-OPh(4-COOH))])-OH; N-terminus and C-terminus assumed) |  | 170
3 | CC[C@H](C)[C@H](NC(=O)[C@H](Cc1ccccc1)NC(=O)[C@H](CCC(=O)O)NC(=O)[C@H](CCCNC(=N)N)NC(=O)[C@H](C)NC(=O)[C@H](C)NC(=O)[C@H](CCC(N)=O)NC(=O)[C@H](CCC(=O)O)NC(=O)[C@H](CCC(=O)O)NC(=O)[C@H](CC(C)C)NC(=O)[C@H](Cc1ccc(O)cc1)NC(=O)[C@H](CO)NC(=O)[C@H](CO)NC(=O)[C@@H](NC(=O)[C@H](CC(=O)O)NC(=O)[C@H](CO)NC(=O)[C@@H](NC(=O)[C@H](Cc1ccccc1)NC(=O)[C@@H](NC(=O)CNC(=O)[C@H](CCC(=O)O)NC(=O)[C@H](Cc1c[nH]c2ccccc12)NC(=O)[C@@H](N)Cc1c[nH]cn1)[C@@H](C)O)[C@@H](C)O)C(C)C)C(=O)N[C@@H](C)C(=O)N[C@@H](Cc1c[nH]c2ccccc12)C(=O)N[C@@H](CC(C)C)C(=O)N[C@H](C(=O)N[C@@H](CCCNC(=N)N)C(=O)NCC(=O)N[C@@H](CCCNC(=N)N)C(=O)N[C@@H](CCCCNC(=O)COCCOCCNC(=O)COCCOCCNC(=O)CN(CCCNC(=O)COCCOCCNC(=O)COCCOCCNC(=O)COCCOCCNC(=O)COCCOCCNC(=O)CC[C@H](NC(=O)[C@H]1CC[C@H](CNC(=O)CCCCCCCCCCCCCCCCCCC(=O)O)CC1)C(=O)O)CCCNC(=O)COCCOCCNC(=O)COCCOCCNC(=O)COCCOCCNC(=O)COCCOCCNC(=O)CC[C@H](NC(=O)[C@H]1CC[C@H](CNC(=O)CCCCCCCCCCCCCCCCCCC(=O)O)CC1)C(=O)O)C(=O)O)C(C)C [Example 13] | 0.818 | 
4 | CC[C@H](C)[C@H](NC(=O)[C@H](Cc1ccccc1)NC(=O)[C@H](CCC(=O)O)NC(=O)[C@H](CCCNC(=N)N)NC(=O)[C@H](C)NC(=O)[C@H](C)NC(=O)[C@H](CCC(N)=O)NC(=O)[C@H](CCC(=O)O)NC(=O)[C@H](CCC(=O)O)NC(=O)[C@H](CC(C)C)NC(=O)[C@H](Cc1ccc(O)cc1)NC(=O)[C@H](CO)NC(=O)[C@H](CO)NC(=O)[C@@H](NC(=O)[C@H](CC(=O)O)NC(=O)[C@H](CO)NC(=O)[C@@H](NC(=O)[C@H](Cc1ccccc1)NC(=O)[C@@H](NC(=O)CNC(=O)[C@H](CCC(=O)O)NC(=O)C(C)(C)NC(=O)[C@@H](N)Cc1c[nH]cn1)[C@@H](C)O)[C@@H](C)O)C(C)C)C(=O)N[C@@H](C)C(=O)N[C@@H](Cc1c[nH]c2ccccc12)C(=O)N[C@@H](CC(C)C)C(=O)N[C@H](C(=O)N[C@@H](CCCNC(=N)N)C(=O)NCC(=O)N[C@@H](CCCCNC(=O)COCCOCCNC(=O)COCCOCCNC(=O)CC[C@H](NC(=O)CCCCCCCCCCOc1ccc(C(=O)O)cc1)C(=O)O)C(=O)N[C@@H](CCCCNC(=O)COCCOCCNC(=O)COCCOCCNC(=O)CC[C@H](NC(=O)CCCCCCCCCCOc1ccc(C(=O)O)cc1)C(=O)O)C(=O)O)C(C)C [Comparative 8A] | 0.245 | 110
5 | CC[C@H](C)[C@H](NC(=O)[C@H](Cc1ccccc1)NC(=O)[C@H](CCC(=O)O)NC(=O)[C@H](CCCNC(=N)N)NC(=O)[C@H](C)NC(=O)[C@H](C)NC(=O)[C@H](CCC(N)=O)NC(=O)[C@H](CCC(=O)O)NC(=O)[C@H](CCC(=O)O)NC(=O)[C@H](CC(C)C)NC(=O)[C@H](Cc1ccc(O)cc1)NC(=O)[C@H](CO)NC(=O)[C@H](CO)NC(=O)[C@@H](NC(=O)[C@H](CC(=O)O)NC(=O)[C@H](CO)NC(=O)[C@@H](NC(=O)[C@H](Cc1ccccc1)NC(=O)[C@@H](NC(=O)CNC(=O)[C@H](CCC(=O)O)NC(=O)[C@H](Cc1c[nH]c2ccccc12)NC(=O)[C@@H](N)Cc1c[nH]cn1)[C@@H](C)O)[C@@H](C)O)C(C)C)C(=O)N[C@@H](C)C(=O)N[C@@H](Cc1c[nH]c2ccccc12)C(=O)N[C@@H](CC(C)C)C(=O)N[C@H](C(=O)N[C@@H](CCCNC(=N)N)C(=O)NCC(=O)N[C@@H](CCCCNC(=O)COCCOCCNC(=O)COCCOCCNC(=O)CC[C@H](NC(=O)CCCCCCCCCOc1cccc(C(=O)O)c1)C(=O)O)C(=O)N[C@@H](CCCCNC(=O)COCCOCCNC(=O)COCCOCCNC(=O)CC[C@H](NC(=O)CCCCCCCCCOc1cccc(C(=O)O)c1)C(=O)O)C(=O)O)C(C)C [Example 1, N{Epsilon-36}-[2-[2-[2-[[2-[2-[2-[[(4S)-4-carboxy-4-[10-(3-carboxyphenoxy)decanoylamino]butanoyl]amino]ethoxy]ethoxy]acetyl]amino]ethoxy]ethoxy]acetyl],N{Epsilon-37}-[2-[2-[2-[[2-[2-[2-[[(4S)-4-carboxy-4-[10-(3-carboxyphenoxy)decanoylamino]butanoyl]amino]ethoxy]ethoxy]acetyl]amino]ethoxy]ethoxy]acetyl]-[Trp8,Glu22,Arg26,Arg34,Lys36,Lys37]-GLP-1-(7-37)-peptide] (H-HWEGTFTSDVSSYLEEQAAREFIAWLVRGK([AEEA-AEEA-γGlu-Decanoyl(10-O(3-COOH-Ph))])K([AEEA-AEEA-γGlu-Decanoyl(10-O(3-COOH-Ph))])-OH) |  | 410
